Reference: patent US20230233537A1, “Compositions and Kits of Parts Comprising N,N-Dimethyltryptamine and Harmine and Their Use in Therapy” (University of Zürich, priority 2020, published 2023)

Columns and labels:
[1] = aqueous solubility of DMT and harmine forms; conditions: for solubility: water, 25 °C
[2] = buccal / transmucosal absorption of DMT forms; conditions: in vivo
[3] = combined intranasal/buccal study (parenteral pharmahuasca): DMT and harmine concentrations in plasma; conditions: for bioavailability (area under the curve; AUC) compared to oral administration: DMT fumarate intranasal, harmine HCl buccal; for variation of peak plasma concentrations (cmax), extensive vs. poor metabolizers, factor: 150 mg buccal harmine HCl, up to 50 mg incremental intranasal DMT fumarate
[4] = local tolerability on nasal or oral mucosa (burning sensation); conditions: for burning sensation on nasal application: intranasal
[5] = target: T1, monoamine oxidase A (MAO-A) (Homo sapiens, UniProt P21397); conditions: cited from earlier work
T1 sequence (P21397 1-527): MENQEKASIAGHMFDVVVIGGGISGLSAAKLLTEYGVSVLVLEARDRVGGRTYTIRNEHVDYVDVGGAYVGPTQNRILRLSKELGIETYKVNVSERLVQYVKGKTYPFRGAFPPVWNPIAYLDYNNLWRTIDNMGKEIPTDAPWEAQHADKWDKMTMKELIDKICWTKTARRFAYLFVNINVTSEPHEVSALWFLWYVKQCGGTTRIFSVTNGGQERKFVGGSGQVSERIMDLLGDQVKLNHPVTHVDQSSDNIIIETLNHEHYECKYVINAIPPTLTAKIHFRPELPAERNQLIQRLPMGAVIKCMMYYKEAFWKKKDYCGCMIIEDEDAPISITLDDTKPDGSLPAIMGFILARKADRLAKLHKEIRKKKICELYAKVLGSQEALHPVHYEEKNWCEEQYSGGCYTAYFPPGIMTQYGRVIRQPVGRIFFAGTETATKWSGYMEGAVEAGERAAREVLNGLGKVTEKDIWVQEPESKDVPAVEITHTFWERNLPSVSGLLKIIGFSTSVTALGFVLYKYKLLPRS

[6] = target: T2, monoamine oxidase B (MAO-B) (Homo sapiens, UniProt P27338); conditions: cited from earlier work
T2 sequence (P27338 1-520): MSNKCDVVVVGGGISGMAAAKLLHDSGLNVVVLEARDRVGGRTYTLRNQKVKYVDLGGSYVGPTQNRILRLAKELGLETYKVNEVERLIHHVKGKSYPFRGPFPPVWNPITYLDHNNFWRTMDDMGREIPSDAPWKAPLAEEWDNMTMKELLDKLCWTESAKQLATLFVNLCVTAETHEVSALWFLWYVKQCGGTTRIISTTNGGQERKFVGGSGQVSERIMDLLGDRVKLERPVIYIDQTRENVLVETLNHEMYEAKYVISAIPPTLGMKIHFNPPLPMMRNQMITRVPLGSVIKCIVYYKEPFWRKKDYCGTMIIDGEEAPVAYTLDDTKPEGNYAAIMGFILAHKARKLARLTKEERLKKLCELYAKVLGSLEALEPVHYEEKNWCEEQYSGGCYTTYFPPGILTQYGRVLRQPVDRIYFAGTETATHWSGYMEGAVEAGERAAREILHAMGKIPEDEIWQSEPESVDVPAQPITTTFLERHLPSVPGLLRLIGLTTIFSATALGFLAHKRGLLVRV

hepatic enzyme CYP2D6 = hepatic enzyme CYP2D6 (Homo sapiens, UniProt P10635); conditions: cited from earlier work
Chain of hepatic enzyme CYP2D6 (P10635 whole entry): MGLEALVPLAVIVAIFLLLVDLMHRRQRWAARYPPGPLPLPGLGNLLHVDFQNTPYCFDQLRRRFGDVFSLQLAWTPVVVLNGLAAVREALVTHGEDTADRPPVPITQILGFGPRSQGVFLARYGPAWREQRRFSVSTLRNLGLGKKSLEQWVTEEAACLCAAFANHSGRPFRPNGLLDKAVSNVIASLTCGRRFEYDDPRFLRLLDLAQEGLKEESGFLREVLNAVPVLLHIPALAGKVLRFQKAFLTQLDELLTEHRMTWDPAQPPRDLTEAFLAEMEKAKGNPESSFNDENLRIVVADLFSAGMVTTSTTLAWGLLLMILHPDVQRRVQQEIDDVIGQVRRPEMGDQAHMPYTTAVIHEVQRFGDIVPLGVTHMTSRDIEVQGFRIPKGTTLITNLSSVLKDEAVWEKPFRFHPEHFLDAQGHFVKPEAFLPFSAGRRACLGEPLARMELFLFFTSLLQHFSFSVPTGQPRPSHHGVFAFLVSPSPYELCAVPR

[7] = peroral pharmahuasca study: DMT and harmine concentrations in plasma; conditions: male, human, oral

CN(C)CCc1c[nH]c2ccccc12.O=C(O)/C=C/C(=O)O [DMT fumarate, N,N-dimethyltryptamine fumarate]
solubility (in words) [1]: high | solubility [1]: > 35 mg/mL | transmucosal absorption [2]: efficient | bioavailability (area under the curve; AUC) compared to oral administration [3]: substantially higher

CN(C)CCc1c[nH]c2ccccc12 [DMT, N,N-Dimethyltryptamine]
burning sensation when administered buccally ([4]; buccal, basic corrosion of the oral mucosa): burning sensation | variation of peak plasma concentrations (cmax), extensive vs. poor metabolizers, factor [3]: ~2.3

COc1ccc2c(c1)[nH]c1c(C)nccc12.Cl [harmine HCl, Harmine hydrochloride]
solubility [1]: ≤ 35 mg/mL | burning sensation on nasal application [4]: intense burning sensation | bioavailability (area under the curve; AUC) compared to oral administration [3]: substantially higher

CC(=O)O.COc1ccc2c(c1)[nH]c1c(C)nccc12 [harmine acetate]
solubility [1]: ≤ 35 mg/mL | burning sensation on nasal application [4]: intense burning sensation

COc1ccc2c(c1)[nH]c1c(C)nccc12.O=C(O)CC(O)(CC(=O)O)C(=O)O [harmine citrate]
solubility [1]: ≤ 35 mg/mL | burning sensation on nasal application [4]: intense burning sensation

COc1ccc2c(c1)[nH]c1c(C)nccc12.O=C(O)/C=C/C(=O)O [harmine fumarate]
solubility [1]: ≤ 35 mg/mL | burning sensation on nasal application [4]: intense burning sensation

COc1ccc2c(c1)[nH]c1c(C)nccc12.O=S(=O)(O)O [harmine sulfate]
solubility [1]: ≤ 35 mg/mL | burning sensation on nasal application [4]: intense burning sensation

COc1ccc2c(c1)[nH]c1c(C)nccc12 [harmine, 7-Methoxy-1-methyl-9H-pyrido[3,4-b]indol]
inhibition of MAO-A [5]: reversibly inhibits | inhibition of MAO-B [6]: does not inhibit | degradation by CYP2D6 (hepatic enzyme CYP2D6): mainly degraded | solubility (in words) [1]: very low | Tmax [7]: 1 to 4.5 h | variation of peak plasma concentrations (cmax), extensive vs. poor metabolizers, factor [3]: ~3.2
